Data: patent publication US20260224688A1, “HELPER LIPIDS FOR NUCLEIC ACID DELIVERY” (SANOFI PASTEUR INC., priority 2023, published 2026)

Columns and labels:
hEPO [1] = test: IV EPO expression of LNPs (tail vein injection); format: in vivo, female BALB/cJ mice; conditions: cationic lipid CL-0137, helper lipid 30 mol %; 0.017 μg EPO mRNA tail vein; 6 hours; DOPE = 1
Procedure: Lipid nanoparticles were formulated containing the four lipid components shown below at a ratio of 40:30:28.5:1.5, complexed with a hEPO messenger RNA. • Cationic lipid CL-0137, 40 mol % • Helper lipid, 30 mol % • Cholesterol, 28.5 mol % • DMG-PEG-2K (1,2-dimyristoyl-rac-glycero-3-methoxypolyethyleneglycol), 1.5 mol %
EPO expression studies were conducted with female BALB/cJ mice 6-8 weeks of age. Mice were dosed with 0.017 μg EPO mRNA LNPs in a volume of 5 ul by a single tail vein injection. Blood samples were taken 6 hours post injection and hEPO levels were measured in the blood serum of the mice using an ELISA assay according to the manufacture's protocol.

[2] = Dynamic light scattering of lipid nanoparticles (size, PDI); format: physicochemical
Procedure: (§1) Lipid nanoparticle formulations 3 were prepared by Process A at a molar ratio of 40:1.5:30:28.5 (Cationic Lipid: DMG-PEG2000: Cholesterol: Helper Lipid) with the cationic lipids and helper lipids disclosed in the tables below. The Polydispersity Index (Pdl) of lipid nanoparticles can be determined by diluting the formulation in 10% trehalose at about 0.1 mg/ml mRNA concentration and then measuring the size on Malvern zetasizer. The lipid nanoparticle size can be obtained with Malvern Zetasizer Nano-ZS.
Dynamic light scattering (DLS) measurements were performed using a Malvern Instruments Zetasizer with a backscattering detector angle of 173° and a 4-mW, 633-nm He—Ne laser (Worcestershire, UK). The samples were analyzed by diluting in 10% Trehalose and measuring the size and Poly dispersity Index (PDI) in an optical grade polystyrene cuvette.

hEPO [3] = test: IM EPO expression of LNPs containing new helper lipids (hEPO in serum by ELISA); format: in vivo, female BALB/cJ mice; conditions: for 6-h EPO / 24-h EPO: single IM injection; for 24-h EPO: serum 24 hours post injection; for Normalized Mean EPO expression: helper lipid CL-C formulations, IM, DOPE = 1
Procedure: Lipid nanoparticles were formulated containing the four lipid components shown below at a ratio of 40:30:28.5:1.5, complexed with a hEPO messenger RNA. • Cationic lipid, 40 mol % • Phospholipid (PEA) helper lipid, 30 mol % • Cholesterol, 28.5 mol % • DMG-PEG-2K (1,2-dimyristoyl-rac-glycero-3-methoxypolyethyleneglycol), 1.5 mol % The cationic lipid component of each formulation was selected from the compounds in the table below: […]
EPO expression studies were conducted with female BALB/cJ mice 6-8 weeks of age. Mice were dosed with […] EPO mRNA in 30 μL of LNPs by a single intramuscular (IM) injection into the gastrocnemius leg muscle. Blood samples were taken 6 and 24 hours post injection and hEPO levels were measured in the blood serum of the mice using an ELISA assay according to the manufacture's protocol. WO2022/099003 A1 also describes an in vivo assay for intramuscular administration (e.g. on page 46, paragraph [00206]).

[4] = mRNA encapsulation efficiency of lipid nanoparticles; format: physicochemical; conditions: for Encapsulation efficiency (EE): LNP with cationic lipid CL-A
From the text: In embodiments, the lipid nanoparticle encapsulates a nucleic acid, optionally an mRNA encoding a peptide or protein. In embodiments, the lipid nanoparticle encapsulates an mRNA encoding a peptide or protein, optionally for use in a vaccine. In embodiments, the peptide is an antigen. As used herein, the phrase “encapsulation percentage” refers to the fraction of therapeutic agent (e.g. mRNA) that is effectively encapsulated within a liposomal-based vehicle (e.g. a lipid nanoparticle) relative to the initial fraction of therapeutic agent present in the lipid phase. In embodiments, the lipid nanoparticles have an encapsulation percentage for mRNA of at least 50%. In embodiments, the lipid nanoparticles have an encapsulation percentage for mRNA of at least 55%. In embodiments, the lipid nanoparticles have an encapsulation percentage for mRNA of at least 60%. In embodiments, the lipid nanoparticles have an encapsulation percentage for mRNA of at least 65%. In embodiments, the lipid nanoparticles have an encapsulation percentage for mRNA of at least 70%. In embodiments, the lipid nanoparticles have an encapsulation percentage for mRNA of at least 75%. In embodiments, the lipid nanoparticles have an encapsulation percentage for mRNA of at least 80%. In embodiments, the lipid nanoparticles have an encapsulation percentage for mRNA of at least 85%. In embodiments, the lipid nanoparticles have an encapsulation percentage for mRNA of at least 90%. In embodiments, the lipid nanoparticles have an encapsulation percentage for mRNA of at least 95%. In embodiments, the encapsulation percentage is calculated by performing the Ribogreen assay (Invitrogen) with and without the presence of 0.1% Triton-X 100.
The lipid nanoparticles in the examples of the present invention were formulated using Process A of WO 2018/089801 (see, e.g., Example 1 and FIG. 1 of WO 2018/089801). Process A (“A”) relates to a conventional method of encapsulating mRNA by mixing mRNA with a mixture of lipids, without first pre-forming the lipids into lipid nanoparticles. In an exemplary process, an ethanolic solution of a mixture of lipids (cationic lipid, phosphatidylethanolamine, cholesterol, and polyethylene glycol-lipid) at a fixed lipid to mRNA ratio were combined with an aqueous buffered solution of target mRNA at an acidic pH under controlled conditions to yield a suspension of uniform LNPs. After ultrafiltration and diafiltration into a suitable diluent system, the resulting nanoparticle suspensions were diluted to final concentration, filtered, and stored frozen at −80° C. until use.
as §1

[5] = LNP with cationic lipid CL-A, hEPO mRNA, 40:30:28.5:1.5
[6] = CL-A LNP, 0.1 μg EPO mRNA in 30 μL, serum 6 hours post injection
[7] = CL-B LNP, serum 6 hours post injection

| SMILES | Normalized Mean IV EPO expression (hEPO [1]) | Polydispersity Index (PDI) ([2]; LNP with cationic lipid CL-A) | Size [2, 5] | PDI ([2]; LNP with cationic lipid CL-B) | Size ([2]; LNP with cationic lipid CL-B) | PDI ([2]; LNP with cationic lipid CL-C) | Size ([2]; LNP with cationic lipid CL-C) | 6-h EPO (hEPO [3]; [6]) | 6-h EPO (hEPO [3]; [7]) | 6-h EPO (hEPO [3]; CL-C LNP, (6-h)) | Encapsulation efficiency (EE) [4] | EE ([4]; LNP with cationic lipid CL-B) | EE ([4]; LNP with cationic lipid CL-C) | Normalized Mean EPO expression (hEPO [3]) | also measured |
| --- | --- | --- | --- | --- | --- | --- | --- | --- | --- | --- | --- | --- | --- | --- | --- |
| CCCCCCCCC(CCCCCCCC)OC(=O)CCCCCCC(=O)OC[C@H](COP(=O)(O)OCCN(C)C)OC(=O)CCCCCCC(=O)OC(CCCCCCCC)CCCCCCCC [Compound 14] | 0.95 | 0.068 | 148 nm | 0.067 | 137.0 nm | 0.141 | 101.4 nm | 0 ng/mL | 35.4 ng/mL | 34.6 ng/mL | 96% | 92% | 91% | – | – |
| CCCCCCCCC(CCCCCCCC)OC(=O)CCCCCCCC(=O)OCC(COP(=O)(O)OCCN(C)C)OC(=O)CCCCCCCC(=O)OC(CCCCCCCC)CCCCCCCC (stereo not shown) [Compound 16, O′^1,O^1-(3-(((2-(Dimethylamino)ethoxy)(hydroxy)phosphoryl)oxy)propane-1,2-diyl) 9-di(heptadecan-9-yl) di(nonanedioate)] | 1.59 | 0.052 | 128 nm | 0.069 | 108.1 nm | 0.077 | 102.7 nm | 17.4 ng/mL | 32.1 ng/mL | 9.7 ng/mL | 95% | 94% | 91% | – | – |
| CCCCCCCCC(CCCCCCCC)OC(=O)CCCCCCC(=O)OCC(COP(=O)(O)OCCN(C)CCO)OC(=O)CCCCCCC(=O)OC(CCCCCCCC)CCCCCCCC (stereo not shown) [Compound 25] | 1.24 | 0.121 | 137 nm | 0.151 | 120.1 nm | 0.142 | 92.2 nm | 16.5 ng/mL | 44.5 ng/mL | 56.5 ng/mL | 93% | 95% | 93% | – | – |
| CCCCCCCCC(CCCCCCCC)OC(=O)CCCCCCC(=O)OCC(COP(=O)(O)OCCN(C)C)OC(=O)CCCCCCC(=O)OC(CCCCCCCC)CCCCCCCC (stereo not shown) [Compound 12, O′^1,O^1-(3-(((2-(Dimethylamino)ethoxy)(hydroxy)phosphoryl)-oxy)propane-1,2-diyl) 8-di(heptadecan-9-yl) di(octanedioate)] | 2.23 | 0.050 | 160 nm | 0.132 | 109.6 nm | 0.072 | 110.1 nm | 28.9209 ng/mL | 39.6 ng/mL | 38.4 ng/mL | 93% | 93% | 90% | – | PDI ([2]; LNP with cationic lipid CL-D): 0.094; Size ([2]; LNP with cationic lipid CL-D): 113.4 nm; PDI ([2]; LNP with cationic lipid CL-E): 0.072; Size ([2]; LNP with cationic lipid CL-E): 112.6 nm; 24-h EPO (hEPO [3]; CL-A LNP): 19.526 ng/mL; 24-h EPO (hEPO [3]; CL-B LNP): 24 ng/mL; 6-h EPO (hEPO [3]; CL-C LNP): 26.2 ng/mL; EE ([4]; LNP with cationic lipid CL-D): 92%; EE ([4]; LNP with cationic lipid CL-E): 91% |
| CCCCCCCCC(CCCCCCCC)OC(=O)CCCCCCC(=O)OCC(COP(=O)(O)OCCN(C)CCCO)OC(=O)CCCCCCC(=O)OC(CCCCCCCC)CCCCCCCC (stereo not shown) [Compound 27] | – | 0.059 | 153 nm | 0.108 | 123.9 nm | 0.129 | 97.0 nm | 25.6 ng/mL | 53 ng/mL | 46.9 ng/mL | 94% | 98% | 97% | – | – |
| CCCCCCCCC(CCCCCCCC)OC(=O)CCCCCCC(=O)OCC(COP(=O)(O)OCCCN(C)C)OC(=O)CCCCCCC(=O)OC(CCCCCCCC)CCCCCCCC (stereo not shown) [Compound 60] | 4.61 | – | – | – | – | – | – | – | – | – | – | – | – | 1.39 | – |
| CCCCCCCCC(CCCCCCCC)OC(=O)CCCCCCC(=O)OC[C@@H](COP(=O)(O)OCC[N+](C)(C)CCCO)OC(=O)CCCCCCC(=O)OC(CCCCCCCC)CCCCCCCC [Compound 38, (S)-2,3-Bis((8-(heptadecan-9-yloxy)-8-oxooctanoyl)oxy)propyl (2-((3-hydroxypropyl)dimethylammonio)ethyl) phosphate] | 0.8 | – | – | – | – | – | – | – | – | – | – | – | – | – | – |
| CCCCCCCCC(CCCCCCCC)OC(=O)CCCCCCC(=O)OC[C@@H](COP(=O)(O)OCCN(C)CCCO)OC(=O)CCCCCCC(=O)OC(CCCCCCCC)CCCCCCCC [Compound 28, 8-Di(heptadecan-9-yl) O′1,O1-((2S)-3-((hydroxy(2-((3-hydroxypropyl)(methyl)amino)ethoxy)phosphoryl)oxy)propane-1,2-diyl) di(octanedioate)] | – | – | – | – | – | – | – | – | – | – | – | – | – | 1.77 | – |
| CC(C)CCCCOC(=O)CCCCCCC(=O)OCC(COP(=O)(O)OCCN)OC(=O)CCCCCCC(=O)OCCCCC(C)C (stereo not shown) [Compound 2, O′^1,O^1-(3-(((2-Aminoethoxy)(hydroxy)phosphoryl)oxy)-propane-1,2-diyl) 8-bis(5-methylhexyl) di(octanedioate)] | – | 0.031 | 137 nm | 0.124 | 97.0 nm | 0.102 | 88.5 nm | – | – | – | 69% | 37% | 69% | – | PDI ([2]; LNP with cationic lipid CL-D): 0.064; Size ([2]; LNP with cationic lipid CL-D): 114.3 nm; EE ([4]; LNP with cationic lipid CL-D): 78% |
| CCCCCCCCC(CCCCCCCC)OC(=O)CCCCCCC(=O)OC[C@@H](COP(=O)(O)OCCCCCN(C)C)OC(=O)CCCCCCC(=O)OC(CCCCCCCC)CCCCCCCC [Compound 65, O′^1,O^1-((2S)-3-((((5-(Dimethylamino)pentyl)oxy)(hydroxy)phosphoryl)-oxy)propane-1,2-diyl) 8-di(heptadecan-9-yl) di(octanedioate)] | 2.14 | – | – | – | – | – | – | – | – | – | – | – | – | 0.825 | – |
